Legend:
[1] = target: T1, Muscarinic acetylcholine receptor M4 (Mus musculus, UniProt P32211); experiment: Potency assessed to inhibit cAMP levels in N1E-115 neuroblastoma cells, for blocking oxotremorine-M in functional assay for Muscarinic acetylcholine receptor M4; assay type: cell-based
T1 sequence (P32211 whole entry): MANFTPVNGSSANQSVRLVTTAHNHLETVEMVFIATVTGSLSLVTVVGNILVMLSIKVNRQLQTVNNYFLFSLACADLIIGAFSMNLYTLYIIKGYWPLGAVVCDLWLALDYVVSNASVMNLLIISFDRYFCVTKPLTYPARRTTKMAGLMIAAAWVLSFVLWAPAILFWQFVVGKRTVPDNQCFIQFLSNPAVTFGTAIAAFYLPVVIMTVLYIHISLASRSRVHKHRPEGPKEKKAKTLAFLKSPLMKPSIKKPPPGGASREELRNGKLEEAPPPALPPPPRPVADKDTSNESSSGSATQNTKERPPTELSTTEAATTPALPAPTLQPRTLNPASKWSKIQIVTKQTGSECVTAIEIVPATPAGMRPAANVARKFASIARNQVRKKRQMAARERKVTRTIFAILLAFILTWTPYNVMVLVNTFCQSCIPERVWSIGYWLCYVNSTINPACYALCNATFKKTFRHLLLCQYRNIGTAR

[2] = target: T2, Muscarinic acetylcholine receptor M4 (Rattus norvegicus, UniProt P08485); experiment: Potency assessed to inhibit cAMP levels in rat striatum, for blocking oxotremorine-M, in functional assay for Muscarinic acetylcholine receptor M4; assay type: tissue-based
T2 sequence (P08485 whole entry): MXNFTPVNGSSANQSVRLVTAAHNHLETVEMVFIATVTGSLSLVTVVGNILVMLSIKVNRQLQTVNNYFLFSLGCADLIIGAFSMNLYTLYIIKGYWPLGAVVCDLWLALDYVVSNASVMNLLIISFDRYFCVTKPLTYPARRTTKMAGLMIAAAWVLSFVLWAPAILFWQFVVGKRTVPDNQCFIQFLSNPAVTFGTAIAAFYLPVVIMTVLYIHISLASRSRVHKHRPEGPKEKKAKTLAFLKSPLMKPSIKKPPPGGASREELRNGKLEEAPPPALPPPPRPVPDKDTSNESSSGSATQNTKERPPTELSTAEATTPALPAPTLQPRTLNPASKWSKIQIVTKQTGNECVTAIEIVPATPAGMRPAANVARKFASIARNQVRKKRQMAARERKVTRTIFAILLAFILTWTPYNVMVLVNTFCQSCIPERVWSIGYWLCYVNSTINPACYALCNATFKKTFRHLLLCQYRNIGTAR

[3] = target: T3, Muscarinic acetylcholine receptor M2 (Rattus norvegicus, UniProt P10980); experiment: Dissociation constant for the blocking of brainstem muscarinic M2 receptor was reported.; assay type: tissue-based
T3 sequence (P10980 whole entry): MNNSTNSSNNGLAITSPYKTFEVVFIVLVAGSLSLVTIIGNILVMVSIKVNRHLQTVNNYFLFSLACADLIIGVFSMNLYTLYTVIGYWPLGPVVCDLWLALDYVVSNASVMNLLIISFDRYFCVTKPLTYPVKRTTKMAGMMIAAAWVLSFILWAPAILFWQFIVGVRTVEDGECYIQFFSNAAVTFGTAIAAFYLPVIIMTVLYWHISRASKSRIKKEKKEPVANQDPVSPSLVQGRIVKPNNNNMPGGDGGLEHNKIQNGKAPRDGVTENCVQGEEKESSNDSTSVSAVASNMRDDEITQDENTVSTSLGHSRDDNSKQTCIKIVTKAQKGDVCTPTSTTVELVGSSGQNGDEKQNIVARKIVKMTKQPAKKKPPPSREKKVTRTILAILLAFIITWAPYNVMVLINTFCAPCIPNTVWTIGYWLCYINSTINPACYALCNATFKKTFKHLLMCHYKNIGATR

[4] = target: T3, Muscarinic acetylcholine receptor M2; experiment: Dissociation constant for the blocking of cardiac muscarinic M2 receptor was reported.; parameters: species or system Heart
[5] = target: T3, Muscarinic acetylcholine receptor M2; experiment: Dissociation constant for the blocking of heart muscarinic M2 receptor was reported.
Rattus norvegicus = species: Rattus norvegicus; experiment: Ability to reverse oxotremorine-M mediated inhibition of evoked acetylcholine release from hippocampal tissue; assay type: functional, Hippocampus
[6] = target: T4, Muscarinic acetylcholine receptor M1 (Homo sapiens, UniProt P11229); experiment: Dissociation constant for human Muscarinic acetylcholine receptor M1 was determined.
T4 sequence (P11229 whole entry): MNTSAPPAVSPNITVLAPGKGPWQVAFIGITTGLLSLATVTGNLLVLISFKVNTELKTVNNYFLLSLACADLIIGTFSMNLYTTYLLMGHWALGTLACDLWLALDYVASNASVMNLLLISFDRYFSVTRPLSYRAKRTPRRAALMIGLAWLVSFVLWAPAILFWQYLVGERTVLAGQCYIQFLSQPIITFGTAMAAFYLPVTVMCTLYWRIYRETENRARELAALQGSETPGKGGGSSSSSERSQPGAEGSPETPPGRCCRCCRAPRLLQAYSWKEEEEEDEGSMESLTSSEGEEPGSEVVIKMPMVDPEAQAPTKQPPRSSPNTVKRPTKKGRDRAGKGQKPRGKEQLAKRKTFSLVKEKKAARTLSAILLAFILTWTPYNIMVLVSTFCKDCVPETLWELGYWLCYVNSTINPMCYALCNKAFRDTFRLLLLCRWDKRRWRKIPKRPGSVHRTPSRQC

[7] = target: T5, Muscarinic acetylcholine receptor M2 (Homo sapiens, UniProt P08172); experiment: Dissociation constant for human Muscarinic acetylcholine receptor M2 was determined.
T5 sequence (P08172 whole entry): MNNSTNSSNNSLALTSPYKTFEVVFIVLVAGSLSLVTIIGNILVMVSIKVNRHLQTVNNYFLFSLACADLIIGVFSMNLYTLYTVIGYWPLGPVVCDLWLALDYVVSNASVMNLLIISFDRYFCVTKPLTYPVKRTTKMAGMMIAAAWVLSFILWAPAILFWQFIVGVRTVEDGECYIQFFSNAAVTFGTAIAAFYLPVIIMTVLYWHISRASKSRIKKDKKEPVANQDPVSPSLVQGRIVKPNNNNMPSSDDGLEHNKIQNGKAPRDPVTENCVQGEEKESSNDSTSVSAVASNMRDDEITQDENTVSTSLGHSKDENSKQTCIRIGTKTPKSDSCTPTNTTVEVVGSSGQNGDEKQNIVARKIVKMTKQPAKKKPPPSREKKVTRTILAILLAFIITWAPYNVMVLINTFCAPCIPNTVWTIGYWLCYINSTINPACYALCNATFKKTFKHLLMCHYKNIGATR

## C[C@@H]1OC(=O)[C@H]2C[C@H]3CCCC[C@@H]3[C@@H](/C=C/[C@H]3CCC[C@H](C)N3C)[C@@H]12 [HIMBACINE]
[1]
  Kd: 11.3 nM
[2]
  Kd: 5.4 nM
[3]
  Kd: 4.6 nM
[4]
  Kd: 3 nM
[5]
  Kd: 6.9 nM
Rattus norvegicus
  Kd: 8.5 nM

## C[C@@H]1OC(=O)C[C@H]1C/C=C/[C@H]1CCCCN1C
[6]
  Kd: 9700 nM
[7]
  Kd: 4400 nM
[3]
  Kd: 1210 nM

Reference: ChEMBL document CHEMBL1126442 (Bioorg Med Chem Lett, 1992)
